The record followed here is patent publication US20250304549A1, “HYDROXYAMIDE DERIVATIVE AND USE THEREOF” (SICHUAN HUIYU PHARMACEUTICAL CO., LTD., priority 2022, published 2025).

Where a name gives a salt, the structure may show the parent alone.

One assay has as its system DU145 cells. The assay is described as follows: In vitro cell inhibition assay - DU145 cell proliferation (CellTiter-Glo). It counts as cell-based. As to conditions: Homo sapiens, DU-145, Du145 prostate cancer cell proliferation. The protocol: 5. In Vitro Cell Inhibition Assay—DU145 Cell Proliferation
The inhibitory effect of the compounds on cell proliferation was assessed by detecting the number of viable cells using the CellTiter-Glo® reagent. DU145 cells in the logarithmic growth phase were collected and inoculated into transparent bottom 96-well plates at a density 1×10^3 cells per well with 100 μL medium, and incubated at 37° C., 5% CO2 overnight. The compounds were sequentially diluted in a 5-fold concentration gradient with DMSO to obtain 8 different concentrations. These were then diluted with RPMI-640 (containing 10% FBS) cell culture medium to obtain the compound working solution (2×), which was added to the cell supernatant at 100 μL per well. The incubation continued for 6 days at 37° C., 5% CO2. The plate was then removed and equilibrated at room temperature (25° C.) along with the CellTiter-Glo® mixing reagent for 10-30 minutes. After centrifugation, 120 μL of the culture medium was carefully aspirated from each well, and 60 μL of CellTiter-Glo® reagent was added. The cells were thoroughly mixed with the CellTiter-Glo® mixing reagent using a microplate shaker for 2 min. and then incubated at room temperature for 10 min. The 96-well plate was subsequently placed on a multifunctional microplate reader to record the Luminescence values (RLU).
(§1) The inhibition rate was calculated using the following formula: […]
(§2) Note: ‘Negative’ refers to the group without inhibitors; ‘Blank’ refers to the group without cells.
(§3) The IC50 value was determined by fitting the inhibition rate by GraphPad Prism software.
On the technique in general: In ATP-based viability assays light output follows the ATP content of the culture.

In the next assay the test system is NCI-H1417 cells. Put plainly: In vitro cell inhibition assay - H1417 cell proliferation (CellTiter-Glo). It counts as cell-based. The settings on record: Homo sapiens, NCI-H1417, H1417 small cell lung cancer cell proliferation. The gist of the method:
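Cells exposed to 8 compound concentrations (5-fold dilutions) in BEGM with 10% FBS for 7 days at 37° C., 5% CO2. Viable cells measured by CellTiter-Glo luminescence; inhibition versus no-inhibitor and no-cell controls, IC50 fitted.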

The test system of a further assay is NCI-H69 cells. The assay is described as follows: In vitro cell inhibition assay - NCI-H69 cell proliferation (CellTiter-Glo). It counts as cell-based. The settings on record: Homo sapiens, NCI-H69, H69 small cell lung cancer cell proliferation. The procedure, abridged: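 Luminescence from CellTiter-Glo reagent served as the viability read-out after cells were exposed to compounds for 7 days at 37° C. Eight concentrations in a 5-fold series were tested in medium with 20% FBS. Inhibition was normalised to untreated and cell-free wells before IC50 fitting.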

For another assay, the target named is pan-HDAC. The assay is described as follows: In vitro enzyme inhibition assay - HDAC (HDAC-Glo I/II), pan-HDAC. It counts as biochemical. The gist of the method: (§4)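 Inhibition was measured with the HDAC-Glo I/II luminescent assay, testing compound as an 8-point, 5-fold dilution series from a 1 mM DMSO stock. Luminescence (RLU) was normalized to no-inhibitor and no-enzyme controls, and IC50 was derived by four-parameter variable-slope fitting.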

The target of a further assay is LSD1 (Homo sapiens (Human), UniProt O60341). The assay is described as follows: In vitro enzyme inhibition assay - LSD1 (HTRF). It counts as biochemical. (In general: Time-resolved FRET reads energy transfer from a long-lived donor to a nearby acceptor.)
A further assay concerns NCI-H526 cells. The assay is described as follows: In vitro cell inhibition assay - NCI-H526 cell proliferation (CellTiter-Glo). It counts as cell-based. The settings on record: Homo sapiens, NCI-H526, 120 h, H526 small cell lung cancer cell proliferation, 5 days. Here is the method: 6. In Vitro Cell Inhibition Assay—NCI-H526 Cell Proliferation
The inhibitory effect of the compounds on cell proliferation was assessed by detecting the number of viable cells using CellTiter-Glo® reagent. NCI-H526 cells in the logarithmic growth phase were collected and inoculated into transparent bottom 96-well plates at a density 1×10^3 cells per well with 100 μL of medium, and incubated at 37° C., 5% CO2 overnight. The compounds were sequentially diluted in a 5-fold concentration gradient with DMSO to obtain 8 different concentrations. These were then diluted with RPMI-640 (containing 10% FBS) cell culture medium to obtain the compound working solution (2×), which was added to the cell supernatant at 100 μL per well. The incubation continued for 5 days at 37° C., 5% CO2. The plate was then removed and equilibrated at room temperature (25° C.) along with the CellTiter-Glo® mixing reagent for 10-30 minutes; 80 μL of the culture medium was carefully aspirated from each well, and 80 μL of CellTiter-Glo® reagent was added. The cells were thoroughly mixed with the CellTiter-Glo® mixing reagent using a microplate shaker for 2 min. and then incubated at room temperature for 10 min. The 96-well plate was subsequently placed on a multifunctional microplate reader to record the Luminescence values (RLU).
as §1, §2, §3

The next assay concerns the target HDAC8 (Homo sapiens (Human), UniProt Q9BY41). The assay is described as follows: In vitro enzyme inhibition assay - HDAC (HDAC-Glo I/II), HDAC8. It counts as biochemical. The settings on record: read-out: HDAC IC50 (nM) HDAC 8. The gist of the method:
as §4

One may read the IC50 as the concentration that inhibits the measured activity by half.

HDAC8, sequence (Q9BY41 whole entry): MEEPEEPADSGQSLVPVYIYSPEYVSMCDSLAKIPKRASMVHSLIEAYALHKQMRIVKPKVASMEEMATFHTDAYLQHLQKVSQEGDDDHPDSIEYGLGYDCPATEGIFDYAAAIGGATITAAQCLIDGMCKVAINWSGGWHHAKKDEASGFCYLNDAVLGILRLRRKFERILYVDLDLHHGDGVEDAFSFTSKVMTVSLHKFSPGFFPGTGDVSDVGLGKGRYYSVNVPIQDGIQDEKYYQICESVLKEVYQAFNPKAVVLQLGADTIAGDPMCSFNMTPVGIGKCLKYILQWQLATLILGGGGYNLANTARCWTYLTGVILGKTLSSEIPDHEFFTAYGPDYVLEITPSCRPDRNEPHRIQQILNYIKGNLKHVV

As to `Cn1cc2cc(-c3c(OCCCCCCC(=O)NO)cc(N4CCC(N)CC4)nc3-c3ccc(C#N)c(F)c3)ccc2n1` [Example 14, 7-((6-(4-Aminopiperidin-1-yl)-2-(4-cyano-3-fluorophenyl)-3-(2-methyl-2H-indazol-5-yl)pyridin-4-yl)oxy)-N-hydroxyheptanamide formate], the IC50 in the assay on DU145 cells was 3210 nM; with NCI-H1417 cells, greater than 1000 nM; with NCI-H69 cells it was 2520 nM.
On the same counts, the results for `COc1cc(-c2cnc(N3CCC(NCc4ccc(/C=C/C(=O)NO)cc4)CC3)c(F)c2-c2ccc(C#N)c(F)c2)ccc1O` [Example 77, (E)-3-(4-(((1-(4-(4-Cyano-3-fluorophenyl)-3-fluoro-5-(4-hydroxy-3-methoxyphenyl)pyridin-2-yl)piperidin-4-yl)amino)methyl)phenyl)-N-hydroxyacrylamide formate] are 320 nM, 661 nM and 121 nM.
For `COc1ccc(-c2cnc(N3CCC(Nc4ccc(/C=C/C(=O)NO)cc4)CC3)c(C#N)c2-c2ccc(C#N)c(F)c2)cc1O` [Example 82, (E)-3-(4-((1-(3-Cyano-4-(4-cyano-3-fluorophenyl)-5-(3-hydroxy-4-methoxyphenyl)pyridin-2-yl)piperidin-4-yl)amino)phenyl)-N-hydroxyacrylamide formate], the 50% inhibitory concentration (IC50) in the assay with DU145 cells amounted to 352 nM; in the assay on NCI-H1417 cells, 11.5 nM; with NCI-H69 cells, 268 nM.
As for `COc1ccc(-c2cnc(N3CCC(CCc4ccc(/C=C/C(=O)NO)cc4)CC3)c(C#N)c2-c2ccc(C#N)c(F)c2)cc1O` [Example 89, (E)-3-(4-(2-(1-(3-cyano-4-(4-cyano-3-fluorophenyl)-5-(3-hydroxy-4-methoxyphenyl)pyridin-2-yl)piperidin-4-yl)ethyl)phenyl)-N-hydroxyacrylamide], the IC50 in the assay on DU145 cells was 390 nM; in the assay on NCI-H1417 cells, greater than 1000 nM; in the assay on NCI-H69 cells, 120 nM.
On the same counts, the results for `COc1cc(-c2cnc(N3CCC(NCC4CCN(c5ccc(C(=O)NO)cc5)CC4)CC3)c(C#N)c2-c2ccc(C#N)c(F)c2)ccc1O` [Example 91, 4-(4-(1-(3-Cyano-4-(4-cyano-3-fluorophenyl)-5-(4-hydroxy-3-methoxyphenyl)pyridin-2-yl)piperidin-4-yl)amino)methyl) piperidin-1-yl)-N-hydroxybenzamide formate] are 2630 nM, 623 nM and 906 nM.
Regarding `COc1cc(-c2cnc(N3CCC(NCCCc4ccc(C(=O)NO)cc4)CC3)c(C#N)c2-c2ccc(C#N)c(F)c2)ccc1O` [Example 93, 4-(3-(3-Cyano-4-(4-cyano-3-fluorophenyl)-5-(4-hydroxy-3-methoxyphenyl)pyridin-2-yl)piperidin-4-yl)amino)propyl)-N-hydroxybenzamide formate], the 50% inhibitory concentration (IC50) in the assay on DU145 cells was determined as 2840 nM; with NCI-H1417 cells, 343 nM; with NCI-H69 cells, 1280 nM.
For the compound `COc1ccc(-c2cnc(N3CCC(NCc4ccc(/C=C/C(=O)NO)cc4Cl)CC3)c(C#N)c2-c2ccc(C#N)c(F)c2)cc1O` [Example 156, (E)-3-(3-Chloro-4-((1-(3-cyano-4-(4-cyano-3-fluorophenyl)-5-(3-hydroxy-4-methoxyphenyl)pyridin-2-yl)piperidin-4-yl)amino)methyl) phenyl)-N-hydroxyacrylamide formate], the IC50 in the assay with NCI-H1417 cells is 6.64 nM; against pan-HDAC, 8.88 nM; against LSD1 it was 2.53 nM; with NCI-H526 cells, 80.4 nM; on HDAC8 it was 731 nM; with NCI-H69 cells, 58.1 nM.
`N#Cc1ccc(-c2c(-c3ccc(Cl)c(O)c3)cnc(N3CCC(NCc4cnc(/C=C/C(=O)NO)nc4)CC3)c2C#N)cc1F` [Example 159, (E)-3-(5-(((1-(5-(4-Chloro-3-hydroxyphenyl)-3-cyano-4-(4-cyano-3-fluorophenyl)pyridin-2-yl)piperidin-4-yl)amino)methyl)pyrimidin-2-yl)-N-hydroxyacrylamide hydrochloride]: the concentration for half-maximal inhibition (IC50) in the assay on NCI-H1417 cells was 3.5 nM; at pan-HDAC, 2.71 nM; against LSD1 it was 1.82 nM; in the assay with NCI-H526 cells, 16.1 nM; on HDAC8, 83.5 nM; with NCI-H69 cells, 17.9 nM.
On to `COc1ccc(-c2cnc(N3CCC(NCc4ccc(/C=C/C(=O)NO)c(C#N)c4)CC3)c(C#N)c2-c2ccc(C#N)c(F)c2)cc1O` [Example 162, (E)-3-(2-Cyano-4-((1-(3-cyano-4-(4-cyano-3-fluorophenyl)-5-(3-hydroxy-4-methoxyphenyl)pyridin-2-yl)piperidin-4-yl)amino)methyl) phenyl)-N-hydroxyacrylamide formate], for which the half-maximal inhibitory concentration (IC50) was 2.98 nM with NCI-H1417 cells; 3.34 nM against pan-HDAC; 0.4 nM against LSD1; 18.5 nM in the assay with NCI-H526 cells; 209 nM on HDAC8; 21.7 nM with NCI-H69 cells.
Consider `COc1ccc(-c2cnc(N3CCC(NCc4ccc(/C(C)=C/C(=O)NO)cc4)CC3)c(C#N)c2-c2ccc(C#N)c(F)c2)cc1O` [Example 170, (E)-3-(4-(((1-(3-Cyano-4-(4-cyano-3-fluorophenyl)-5-(3-hydroxy-4-methoxyphenyl)pyridin-2-yl)piperidin-4-yl)amino)methyl)phenyl)-N-hydroxybut-2-enamide formate], for which the IC50 turned out to be 1.28 nM with NCI-H1417 cells; 2 nM on pan-HDAC; 0.43 nM on LSD1; 27.5 nM with NCI-H526 cells; 62.7 nM at HDAC8; 27.6 nM with NCI-H69 cells.
`COc1ccc(-c2cnc(N3CCC(NCc4ccc(/C=C(\F)C(=O)NO)cc4)CC3)c(C#N)c2-c2ccc(C#N)c(F)c2)cc1O` [Example 171, (Z)-3-(4-(((1-(3-Cyano-4-(4-cyano-3-fluorophenyl)-5-(3-hydroxy-4-methoxyphenyl)pyridin-2-yl)piperidin-4-yl)amino)methyl)phenyl)-2-fluoro-N-hydroxyacrylamide formate]: the concentration for half-maximal inhibition (IC50) worked out at 0.54 nM in the assay with NCI-H1417 cells; 1.68 nM on pan-HDAC; 0.55 nM against LSD1; 12.3 nM in the assay on NCI-H526 cells; 53.1 nM at HDAC8; 14.5 nM in the assay with NCI-H69 cells.
As for `COc1ccc(-c2c(C#N)cc(N3CCC(NCc4ccc(/C=C/C(=O)NO)cc4)CC3)nc2-c2ccc(C#N)c(F)c2)cc1O` [Example 176, (E)-3-(4-(((1-(4-cyano-6-(4-cyano-3-fluorophenyl)-5-(3-hydroxy-4-methoxyphenyl)pyridin-2-yl)piperidin-4-yl)amino)methyl)phenyl)-N-hydroxyacrylamide formate], the IC50 in the assay with NCI-H1417 cells came to 1.88 nM; on pan-HDAC, 38.2 nM; on LSD1, 0.69 nM; in the assay on NCI-H526 cells, 497 nM; on HDAC8, 508 nM; in the assay on NCI-H69 cells, 245 nM.
For `CC(C)(O)Cn1nnc2cc(-c3cnc(N4CCC(NCc5ccc(/C=C/C(=O)NO)cc5)CC4)c(C#N)c3-c3ccc(C#N)c(F)c3)ccc21` [Example 197, (E)-3-(4-(((1-(3-Cyano-4-(4-cyano-3-fluorophenyl)-5-(1-(2-hydroxy-2-methylpropyl)-1H-benzo[d][1,2,3]triazol-5-yl)pyridin-2-yl)piperidin-4-yl)amino)methyl)phenyl)-N-hydroxyacrylamide formate], the IC50 in the assay on NCI-H1417 cells was determined as 3.59 nM; against pan-HDAC, 7.48 nM; against LSD1, 0.49 nM; in the assay with NCI-H526 cells, 193 nM; at HDAC8, 30.1 nM; in the assay on NCI-H69 cells it was 71.8 nM.
